{"source": "ChEMBL document CHEMBL5465560", "about": "“Selectivity Literature for EUbOPEN Chemogenomic Library” (2024)", "key": {"[1]": {"target": "T1, Serine/threonine-protein kinase ULK1 (Homo sapiens) (UniProt O75385)", "T1 sequence (whole entry)": "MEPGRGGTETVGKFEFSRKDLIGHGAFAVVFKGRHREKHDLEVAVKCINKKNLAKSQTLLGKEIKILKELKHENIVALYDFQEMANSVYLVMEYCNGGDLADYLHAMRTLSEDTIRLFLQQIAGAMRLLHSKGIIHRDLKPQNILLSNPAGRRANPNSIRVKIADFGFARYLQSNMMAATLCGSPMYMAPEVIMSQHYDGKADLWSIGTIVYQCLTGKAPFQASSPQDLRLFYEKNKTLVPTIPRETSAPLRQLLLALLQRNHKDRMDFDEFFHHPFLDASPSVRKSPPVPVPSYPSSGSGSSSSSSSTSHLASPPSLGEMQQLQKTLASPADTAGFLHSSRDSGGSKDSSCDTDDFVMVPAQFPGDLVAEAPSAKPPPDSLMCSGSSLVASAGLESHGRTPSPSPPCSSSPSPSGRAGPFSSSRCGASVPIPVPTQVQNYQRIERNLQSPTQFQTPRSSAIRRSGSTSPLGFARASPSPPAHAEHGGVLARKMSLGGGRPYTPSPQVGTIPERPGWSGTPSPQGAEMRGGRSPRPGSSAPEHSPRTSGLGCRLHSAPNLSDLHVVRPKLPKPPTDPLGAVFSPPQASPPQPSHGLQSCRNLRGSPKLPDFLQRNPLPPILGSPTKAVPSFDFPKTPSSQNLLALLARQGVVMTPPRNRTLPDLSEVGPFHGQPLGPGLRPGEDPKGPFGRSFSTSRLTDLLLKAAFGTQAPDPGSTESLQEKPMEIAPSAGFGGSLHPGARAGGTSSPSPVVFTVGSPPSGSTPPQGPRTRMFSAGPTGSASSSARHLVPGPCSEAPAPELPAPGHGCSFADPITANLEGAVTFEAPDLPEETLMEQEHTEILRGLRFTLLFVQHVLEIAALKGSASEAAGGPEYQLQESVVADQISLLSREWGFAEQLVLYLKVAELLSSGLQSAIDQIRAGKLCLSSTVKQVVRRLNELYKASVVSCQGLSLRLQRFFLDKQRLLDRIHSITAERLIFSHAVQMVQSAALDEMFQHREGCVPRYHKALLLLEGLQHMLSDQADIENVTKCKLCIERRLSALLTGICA", "settings": "at 10 µM"}, "[2]": {"test_system": "Epidermal growth factor receptor (Homo sapiens), P00533 [UNDEFINED MUTATION]", "sequence (P00533 whole entry, looked up, change not shown)": "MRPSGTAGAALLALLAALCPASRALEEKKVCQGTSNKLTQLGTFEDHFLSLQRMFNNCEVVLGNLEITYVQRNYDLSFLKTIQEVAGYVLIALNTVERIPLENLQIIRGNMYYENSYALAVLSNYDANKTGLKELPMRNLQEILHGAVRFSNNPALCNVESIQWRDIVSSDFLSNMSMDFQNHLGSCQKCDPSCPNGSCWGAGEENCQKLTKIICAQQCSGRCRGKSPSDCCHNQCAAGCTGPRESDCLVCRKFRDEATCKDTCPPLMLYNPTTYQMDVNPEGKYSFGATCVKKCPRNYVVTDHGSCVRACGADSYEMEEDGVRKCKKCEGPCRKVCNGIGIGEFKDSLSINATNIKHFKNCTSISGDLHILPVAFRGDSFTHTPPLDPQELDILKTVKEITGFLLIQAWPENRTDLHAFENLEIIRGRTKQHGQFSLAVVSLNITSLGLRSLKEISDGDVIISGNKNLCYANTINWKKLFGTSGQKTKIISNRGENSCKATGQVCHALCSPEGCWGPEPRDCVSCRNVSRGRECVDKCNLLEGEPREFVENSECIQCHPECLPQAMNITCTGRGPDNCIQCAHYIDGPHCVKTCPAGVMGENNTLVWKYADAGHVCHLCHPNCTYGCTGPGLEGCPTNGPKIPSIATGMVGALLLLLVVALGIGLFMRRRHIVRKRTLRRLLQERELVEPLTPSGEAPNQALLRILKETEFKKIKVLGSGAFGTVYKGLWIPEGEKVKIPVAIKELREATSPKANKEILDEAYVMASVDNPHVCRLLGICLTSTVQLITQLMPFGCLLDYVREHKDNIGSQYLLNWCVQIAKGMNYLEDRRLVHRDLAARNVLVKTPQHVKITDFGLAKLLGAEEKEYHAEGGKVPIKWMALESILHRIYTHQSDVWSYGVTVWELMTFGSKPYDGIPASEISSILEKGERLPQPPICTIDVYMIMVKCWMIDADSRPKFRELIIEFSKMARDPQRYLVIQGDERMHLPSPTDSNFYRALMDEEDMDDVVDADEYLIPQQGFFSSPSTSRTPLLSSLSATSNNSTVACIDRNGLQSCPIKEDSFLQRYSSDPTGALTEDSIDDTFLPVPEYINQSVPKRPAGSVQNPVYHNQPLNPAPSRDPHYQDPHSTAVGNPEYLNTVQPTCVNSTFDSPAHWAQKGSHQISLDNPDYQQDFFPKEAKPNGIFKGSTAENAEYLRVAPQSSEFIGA", "experiment": "Selectivity interaction (KinomeScan (DiscoverX)) EUB0001049a EGFR", "settings": "at 1 µM"}, "[3]": {"target": "Casein kinase I isoform gamma-2 (Homo sapiens) (UniProt P78368)", "sequence (P78368 whole entry, looked up, canonical isoform)": "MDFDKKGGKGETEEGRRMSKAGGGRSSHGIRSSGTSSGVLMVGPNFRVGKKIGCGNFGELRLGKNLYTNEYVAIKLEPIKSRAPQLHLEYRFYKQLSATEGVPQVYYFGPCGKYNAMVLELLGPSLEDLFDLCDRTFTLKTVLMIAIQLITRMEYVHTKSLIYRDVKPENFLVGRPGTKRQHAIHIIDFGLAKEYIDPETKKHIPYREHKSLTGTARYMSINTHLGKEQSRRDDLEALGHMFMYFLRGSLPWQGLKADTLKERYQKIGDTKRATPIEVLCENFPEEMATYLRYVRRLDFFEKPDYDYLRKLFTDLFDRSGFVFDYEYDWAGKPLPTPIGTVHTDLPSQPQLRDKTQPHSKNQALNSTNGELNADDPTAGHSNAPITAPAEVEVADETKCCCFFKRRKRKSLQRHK", "experiment": "Selectivity interaction (KinomeScan (DiscoverX)) EUB0001619a CSNK1G2", "settings": "at 1 µM"}, "[4]": {"target": "Protein arginine N-methyltransferase 5 (Homo sapiens, UniProt O14744)", "sequence (O14744 whole entry)": "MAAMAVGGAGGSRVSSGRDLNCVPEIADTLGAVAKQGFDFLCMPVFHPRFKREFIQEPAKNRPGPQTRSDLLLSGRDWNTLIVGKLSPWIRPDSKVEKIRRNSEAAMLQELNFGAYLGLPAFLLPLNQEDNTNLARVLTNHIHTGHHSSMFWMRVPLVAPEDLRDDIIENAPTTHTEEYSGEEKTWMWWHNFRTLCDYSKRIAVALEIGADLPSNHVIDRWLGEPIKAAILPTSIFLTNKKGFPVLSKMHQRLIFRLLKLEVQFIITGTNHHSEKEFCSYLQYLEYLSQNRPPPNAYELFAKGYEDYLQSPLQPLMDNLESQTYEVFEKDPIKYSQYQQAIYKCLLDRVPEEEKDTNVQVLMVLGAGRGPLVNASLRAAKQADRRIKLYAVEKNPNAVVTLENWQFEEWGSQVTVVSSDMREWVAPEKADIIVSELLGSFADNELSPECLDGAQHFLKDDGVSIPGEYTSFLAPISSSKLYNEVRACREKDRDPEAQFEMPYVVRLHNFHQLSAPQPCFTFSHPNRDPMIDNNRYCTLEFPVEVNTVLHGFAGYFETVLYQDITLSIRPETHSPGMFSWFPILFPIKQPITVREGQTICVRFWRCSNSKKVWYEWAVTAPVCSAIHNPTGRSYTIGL", "experiment": "Selectivity interaction (Scintillation proximity assays) EUB0000255b PRMT5"}, "[5]": {"target": "T2, Mitogen-activated protein kinase kinase kinase kinase 2 (Homo sapiens) (UniProt Q12851)", "T2 sequence (whole entry)": "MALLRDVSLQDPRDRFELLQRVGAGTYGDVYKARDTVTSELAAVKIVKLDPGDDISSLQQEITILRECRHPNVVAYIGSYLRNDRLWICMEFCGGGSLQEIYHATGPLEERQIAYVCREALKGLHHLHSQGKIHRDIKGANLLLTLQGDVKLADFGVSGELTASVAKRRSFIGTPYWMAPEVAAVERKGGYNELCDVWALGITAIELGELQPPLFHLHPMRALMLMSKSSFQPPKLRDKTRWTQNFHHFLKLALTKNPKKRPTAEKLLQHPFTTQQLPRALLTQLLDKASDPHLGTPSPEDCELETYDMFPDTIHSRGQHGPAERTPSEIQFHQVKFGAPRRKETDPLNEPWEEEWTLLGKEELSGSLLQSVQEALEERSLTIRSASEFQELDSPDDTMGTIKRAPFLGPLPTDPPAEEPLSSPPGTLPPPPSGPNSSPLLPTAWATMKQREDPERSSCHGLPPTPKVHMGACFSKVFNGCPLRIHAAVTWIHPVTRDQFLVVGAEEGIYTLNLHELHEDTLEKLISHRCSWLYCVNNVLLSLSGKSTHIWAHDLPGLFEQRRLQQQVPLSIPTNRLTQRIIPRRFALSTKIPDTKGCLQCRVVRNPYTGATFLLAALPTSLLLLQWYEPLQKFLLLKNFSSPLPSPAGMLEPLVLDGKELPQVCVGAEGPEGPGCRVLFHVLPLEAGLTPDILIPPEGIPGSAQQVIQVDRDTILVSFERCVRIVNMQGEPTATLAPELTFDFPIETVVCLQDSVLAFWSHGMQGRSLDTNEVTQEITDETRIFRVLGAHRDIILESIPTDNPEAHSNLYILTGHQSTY", "experiment": "Selectivity interaction (KinomeScan (DiscoverX)) EUB0000607a MAP4K2", "settings": "at 10 µM"}, "[6]": {"target": "T3, Mitogen-activated protein kinase kinase kinase kinase 3 (Homo sapiens) (UniProt Q8IVH8)", "T3 sequence (whole entry)": "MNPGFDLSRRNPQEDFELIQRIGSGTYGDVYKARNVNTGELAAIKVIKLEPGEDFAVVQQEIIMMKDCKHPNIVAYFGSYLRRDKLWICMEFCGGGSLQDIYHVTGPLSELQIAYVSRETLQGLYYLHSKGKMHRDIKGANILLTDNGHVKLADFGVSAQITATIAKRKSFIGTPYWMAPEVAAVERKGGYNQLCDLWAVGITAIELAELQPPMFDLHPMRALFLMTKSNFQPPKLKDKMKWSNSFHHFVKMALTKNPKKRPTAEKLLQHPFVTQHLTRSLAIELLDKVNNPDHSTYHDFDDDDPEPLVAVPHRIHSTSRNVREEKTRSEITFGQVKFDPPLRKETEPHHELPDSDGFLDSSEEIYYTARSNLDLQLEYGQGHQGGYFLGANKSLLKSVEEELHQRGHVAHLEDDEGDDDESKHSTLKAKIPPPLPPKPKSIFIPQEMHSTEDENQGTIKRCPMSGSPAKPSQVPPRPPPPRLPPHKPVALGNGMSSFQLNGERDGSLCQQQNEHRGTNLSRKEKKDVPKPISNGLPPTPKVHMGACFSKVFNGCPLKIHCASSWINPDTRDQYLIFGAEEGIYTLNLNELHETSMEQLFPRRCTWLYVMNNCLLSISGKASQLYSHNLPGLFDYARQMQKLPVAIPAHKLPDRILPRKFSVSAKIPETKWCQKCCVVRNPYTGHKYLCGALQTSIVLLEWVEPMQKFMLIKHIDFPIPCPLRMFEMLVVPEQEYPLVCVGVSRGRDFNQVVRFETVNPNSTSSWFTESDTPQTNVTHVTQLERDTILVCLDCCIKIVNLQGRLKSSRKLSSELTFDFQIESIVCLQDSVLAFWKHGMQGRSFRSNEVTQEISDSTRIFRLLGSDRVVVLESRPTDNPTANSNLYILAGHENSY", "experiment": "Selectivity interaction (KinomeScan (DiscoverX)) EUB0000618a MAP4K3", "settings": "at 10 µM"}}}
{"smiles": "Cc1cc([C@@H](C)Nc2ccccc2C(=O)O)c2nc(N3CCOCC3)cc(=O)n2c1", "note": "[AZD-6482]", "values": [{"measurement": "% of control", "setting": "[1]", "value": 91, "unit": "%"}]}
{"smiles": "COc1cc(Nc2nc(C)cc(-c3cnn4nc(OC)ccc34)n2)cc(C(F)(F)F)c1", "values": [{"measurement": "% of control", "setting": "[2]", "value": 53, "unit": "%"}]}
{"smiles": "N#Cc1cccc(-c2c[nH]c3ncnc(N4CCOCC4)c23)c1", "values": [{"measurement": "% of control", "setting": "[3]", "value": 89, "unit": "%"}]}
{"smiles": "COCCN1CCC(c2cc(CN(C)C(=O)c3cccc(Oc4ccccc4)c3)ccn2)CC1", "values": [{"measurement": "IC50", "setting": "[4]", "value": "> 10", "unit": "µM"}]}
{"smiles": "CNC(=O)Nc1ccc(-c2nc(N3CC4CCC(C3)O4)c3cnn(C4CCC5(CC4)OCCO5)c3n2)cc1", "values": [{"measurement": "% of control", "setting": "[5]", "value": 100, "unit": "%"}]}
{"smiles": "O[C@H]1CC[C@H](Nc2ncc3nc(Nc4c(F)cc(F)cc4F)n([C@H]4CCOC4)c3n2)CC1", "values": [{"measurement": "% of control", "setting": "[6]", "value": 85, "unit": "%"}]}
